Test results from patent US4515941A, “23-Demycinosyldesmycosin derivatives” (Toyo Jozo Kabushiki Kaisha, priority 1982, dated 1985).
Converted amounts (≈) assume the structure as drawn. Where two headings read alike, the source gives them in different places.

Key:
Assay type in all cases: cell-based
[1] = system: Staphylococcus aureus ATCC 6538P; assay: MIC, Staphylococcus aureus ATCC 6538P; conditions: ATCC6538P, read-out: MIC
[2] = system: Staphylococcus aureus MS353; assay: MIC, Staphylococcus aureus MS353; conditions: Staphylococcus aureus MS353; read-out: MIC
[3] = system: Staphylococcus aureus MS353 C36; assay: MIC, Staphylococcus aureus MS353 C36; conditions: MS353C36
[4] = system: Staphylococcus aureus MS353 A0; assay: MIC, Staphylococcus aureus MS353 A0 (macrolide resistant); conditions: MS353A0, macrolide resistant bacteria A group
Source text: (§1) *macrolide resistant bacteria A group (clinical isolates of erythromycin,
(§2) oleandomycin and 16membered macrolide antibiotic resistant strains.)

[5] = system: Staphylococcus aureus 0119; assay: MIC, Staphylococcus aureus 0119 (macrolide resistant); conditions: macrolide resistant bacteria A group
Source text: as §1, §2

[6] = system: Staphylococcus aureus 0127; assay: MIC, Staphylococcus aureus 0127 (macrolide resistant)
Source text: as §1, §2

[7] = system: Staphylococcus epidermis sp-al-1; assay: MIC, Staphylococcus epidermis sp-al-1; conditions: SPAL1; Staphylococcus epidermis sp-al-1; read-out: MIC
[8] = system: Streptococcus pyogenes N.Y.5; assay: MIC, Streptococcus pyogenes N.Y.5; conditions: read-out: MIC
[9] = system: Streptococcus pyogenes 1022; assay: MIC, Streptococcus pyogenes 1022 (macrolide resistant); conditions: macrolide resistant bacteria A group
Source text: as §1, §2

[10] = system: Streptococcus faecalis 1501; assay: MIC, Streptococcus faecalis 1501; conditions: Enterococcus faecalis; Streptococcus faecalis 1501; read-out: MIC
[11] = system: Streptococcus agalactiae 1020; assay: MIC, Streptococcus agalactiae 1020; conditions: Streptococcus agalactiae 1020; read-out: MIC
[12] = system: Sarcina lutea ATCC 9341; assay: MIC, Sarcina lutea ATCC 9341; conditions: Micrococcus luteus, ATCC9341
[13] = system: Micrococcus flavus ATCC 10240; assay: MIC, Micrococcus flavus ATCC 10240; conditions: ATCC10240; Micrococcus flavus ATCC 10240; read-out: MIC
[14] = system: Corynebacterium diptheriae P.Y.8; assay: MIC, Corynebacterium diptheriae P.Y.8; conditions: Corynebacterium diptheriae P.Y.8; read-out: MIC
[15] = system: Bacillus subtilis ATC 6633; assay: MIC, Bacillus subtilis ATC 6633; conditions: ATC6633; Bacillus subtilis ATC 6633; read-out: MIC
[16] = system: Escherichia coli NIHJ-JC2; assay: MIC, Escherichia coli NIHJ-JC2; conditions: NIHJJC2
[17] = system: Escherichia coli B; assay: MIC, Escherichia coli B
[18] = system: Klebsiella pneumoniae ATCC 10031; assay: MIC, Klebsiella pneumoniae ATCC 10031; conditions: ATCC10031; Klebsiella pneumoniae ATCC 10031; read-out: MIC
[19] = system: Salmonella typhosa H901; assay: MIC, Salmonella typhosa H901; conditions: Salmonella enterica, TYPHOSA
[20] = system: Salmonella enteritidis Gaertner; assay: MIC, Salmonella enteritidis Gaertner; conditions: Salmonella enterica; Salmonella enteritidis Gaertner; read-out: MIC
[21] = system: Shigella flexineri type 3a; assay: MIC, Shigella flexineri type 3a; conditions: TYPE3A
[22] = system: Shigella sonnei E33; assay: MIC, Shigella sonnei E33
[23] = system: Proteus vulgaris OX19; assay: MIC, Proteus vulgaris OX19; conditions: Proteus vulgaris OX19; read-out: MIC
[24] = system: Serratia marcescens; assay: MIC, Serratia marcescens; conditions: read-out: MIC
[25] = system: Pseudomonas aeruginosa IAM 1095; assay: MIC, Pseudomonas aeruginosa IAM 1095; conditions: IAM1095; Pseudomonas aeruginosa IAM 1095; read-out: MIC
[26] = Staphylococcus aureus 0127, macrolide resistant bacteria A group, read-out: MIC
[27] = Streptococcus pyogenes 1022, read-out: MIC

| SMILES | MIC [1] | MIC [2] | MIC [3] | MIC [4] | MIC [5] | MIC [7] | MIC [8] | MIC [10] | MIC [11] | MIC [12] | MIC [13] | MIC [14] | MIC [15] | MIC [16] | MIC [17] | MIC [18] | MIC [19] | MIC [20] | MIC [21] | MIC [22] | other results |
| --- | --- | --- | --- | --- | --- | --- | --- | --- | --- | --- | --- | --- | --- | --- | --- | --- | --- | --- | --- | --- | --- |
| CCC1OC(=O)CC(O)C(C)C(OC2OC(C)C(O)C(N(C)C)C2O)C(CC=O)CC(C)C(=O)C=CC(C)=CC1COc1ccccc1 (stereo not shown) | ≤ 0.05 µg/mL | ≤ 0.05 µg/mL | ≤ 0.05 µg/mL | 50 µg/mL (≈ 74.2 µM) | 100 µg/mL (≈ 148 µM) | ≤ 0.05 µg/mL | ≤ 0.05 µg/mL | ≤ 0.05 µg/mL | ≤ 0.05 µg/mL | ≤ 0.05 µg/mL | ≤ 0.05 µg/mL | ≤ 0.05 µg/mL | ≤ 0.05 µg/mL | 50 µg/mL (≈ 74.2 µM) | 25 µg/mL (≈ 37.1 µM) | 1.6 µg/mL (≈ 2.37 µM) | 100 µg/mL (≈ 148 µM) | 100 µg/mL (≈ 148 µM) | 6.3 µg/mL (≈ 9.35 µM) | 50 µg/mL (≈ 74.2 µM) | MIC [6, 26]: 100 µg/mL (≈ 148 µM); MIC [9, 27]: 50 µg/mL (≈ 74.2 µM); MIC [23]: 12.5 µg/mL (≈ 18.6 µM); MIC [24]: 25 µg/mL (≈ 37.1 µM); MIC [25]: 50 µg/mL (≈ 74.2 µM) |
| CCC1OC(=O)CC(O)C(C)C(OC2OC(C)C(O)C(N(C)C)C2O)C(CC=O)CC(C)C(=O)C=CC(C)=CC1COc1ccc(C)cc1 (stereo not shown) | 0.2 µg/mL (≈ 0.291 µM) | 0.2 µg/mL (≈ 0.291 µM) | 0.2 µg/mL (≈ 0.291 µM) | 50 µg/mL (≈ 72.7 µM) | 50 µg/mL (≈ 72.7 µM) | ≤ 0.05 µg/mL | ≤ 0.05 µg/mL | 0.1 µg/mL (≈ 0.145 µM) | ≤ 0.05 µg/mL | ≤ 0.05 µg/mL | ≤ 0.05 µg/mL | ≤ 0.05 µg/mL | 0.1 µg/mL (≈ 0.145 µM) | 100 µg/mL (≈ 145 µM) | 50 µg/mL (≈ 72.7 µM) | 6.3 µg/mL (≈ 9.16 µM) | > 100 µg/mL | > 100 µg/mL | 50 µg/mL (≈ 72.7 µM) | > 100 µg/mL | MIC [6, 26]: 50 µg/mL (≈ 72.7 µM); MIC [9, 27]: 25 µg/mL (≈ 36.3 µM); MIC [23]: 25 µg/mL (≈ 36.3 µM); MIC [24]: 100 µg/mL (≈ 145 µM); MIC [25]: > 100 µg/mL |
| CCc1ccc(OCC2C=C(C)C=CC(=O)C(C)CC(CC=O)C(OC3OC(C)C(O)C(N(C)C)C3O)C(C)C(O)CC(=O)OC2CC)cc1 (stereo not shown) | 0.4 µg/mL (≈ 0.57 µM) | 0.4 µg/mL (≈ 0.57 µM) | 0.4 µg/mL (≈ 0.57 µM) | 25 µg/mL (≈ 35.6 µM) | 25 µg/mL (≈ 35.6 µM) | 0.2 µg/mL (≈ 0.285 µM) | 0.1 µg/mL (≈ 0.142 µM) | 0.4 µg/mL (≈ 0.57 µM) | 0.1 µg/mL (≈ 0.142 µM) | ≤ 0.05 µg/mL | ≤ 0.05 µg/mL | ≤ 0.05 µg/mL | 0.4 µg/mL (≈ 0.57 µM) | > 100 µg/mL | > 100 µg/mL | 6.3 µg/mL (≈ 8.98 µM) | > 100 µg/mL | > 100 µg/mL | > 100 µg/mL | > 100 µg/mL | MIC [6, 26]: 25 µg/mL (≈ 35.6 µM); MIC [9, 27]: 12.5 µg/mL (≈ 17.8 µM); MIC [23]: 100 µg/mL (≈ 142 µM); MIC [24]: > 100 µg/mL; MIC [25]: > 100 µg/mL |
| CCC1OC(=O)CC(O)C(C)C(OC2OC(C)C(O)C(N(C)C)C2O)C(CC=O)CC(C)C(=O)C=CC(C)=CC1COc1ccc(Cl)cc1 (stereo not shown) | 0.1 µg/mL (≈ 0.141 µM) | 0.1 µg/mL (≈ 0.141 µM) | ≤ 0.05 µg/mL | 25 µg/mL (≈ 35.3 µM) | 50 µg/mL (≈ 70.6 µM) | ≤ 0.05 µg/mL | ≤ 0.05 µg/mL | 0.1 µg/mL (≈ 0.141 µM) | ≤ 0.05 µg/mL | ≤ 0.05 µg/mL | ≤ 0.05 µg/mL | ≤ 0.05 µg/mL | 0.1 µg/mL (≈ 0.141 µM) | 50 µg/mL (≈ 70.6 µM) | 50 µg/mL (≈ 70.6 µM) | 3.1 µg/mL (≈ 4.38 µM) | > 100 µg/mL | > 100 µg/mL | 6.3 µg/mL (≈ 8.89 µM) | 50 µg/mL (≈ 70.6 µM) | MIC [6, 26]: 25 µg/mL (≈ 35.3 µM); MIC [9, 27]: 12.5 µg/mL (≈ 17.6 µM); MIC [23]: 12.5 µg/mL (≈ 17.6 µM); MIC [24]: 50 µg/mL (≈ 70.6 µM); MIC [25]: > 100 µg/mL |
| CCC1OC(=O)CC(O)C(C)C(OC2OC(C)C(O)C(N(C)C)C2O)C(CC=O)CC(C)C(=O)C=CC(C)=CC1COc1ccc(Br)cc1 (stereo not shown) | 0.1 µg/mL (≈ 0.133 µM) | 0.2 µg/mL (≈ 0.266 µM) | 0.2 µg/mL (≈ 0.266 µM) | 25 µg/mL (≈ 33.2 µM) | 25 µg/mL (≈ 33.2 µM) | 0.1 µg/mL (≈ 0.133 µM) | ≤ 0.05 µg/mL | 0.2 µg/mL (≈ 0.266 µM) | ≤ 0.05 µg/mL | ≤ 0.05 µg/mL | ≤ 0.05 µg/mL | ≤ 0.05 µg/mL | 0.2 µg/mL (≈ 0.266 µM) | 100 µg/mL (≈ 133 µM) | 25 µg/mL (≈ 33.2 µM) | 3.1 µg/mL (≈ 4.12 µM) | > 100 µg/mL | > 100 µg/mL | 12.5 µg/mL (≈ 16.6 µM) | 100 µg/mL (≈ 133 µM) | MIC [6, 26]: 25 µg/mL (≈ 33.2 µM); MIC ([9]; Streptococcus pyogenes, 1022, Streptococcus pyogenes 1022): 12.5 µg/mL (≈ 16.6 µM); MIC [23]: 25 µg/mL (≈ 33.2 µM); MIC [24]: 50 µg/mL (≈ 66.4 µM); MIC [25]: > 100 µg/mL |
| CCC1OC(=O)CC(O)C(C)C(OC2OC(C)C(O)C(N(C)C)C2O)C(CC=O)CC(C)C(=O)C=CC(C)=CC1COc1ccc(Cl)cc1Cl (stereo not shown) | 0.2 µg/mL (≈ 0.269 µM) | 0.2 µg/mL (≈ 0.269 µM) | 0.1 µg/mL (≈ 0.135 µM) | 12.5 µg/mL (≈ 16.8 µM) | 25 µg/mL (≈ 33.7 µM) | ≤ 0.05 µg/mL | ≤ 0.05 µg/mL | 0.1 µg/mL (≈ 0.135 µM) | ≤ 0.05 µg/mL | ≤ 0.05 µg/mL | ≤ 0.05 µg/mL | ≤ 0.05 µg/mL | 0.1 µg/mL (≈ 0.135 µM) | > 100 µg/mL | > 100 µg/mL | 3.1 µg/mL (≈ 4.17 µM) | > 100 µg/mL | > 100 µg/mL | 25 µg/mL (≈ 33.7 µM) | > 100 µg/mL | MIC ([6]; Staphylococcus aureus, 0127): 12.5 µg/mL (≈ 16.8 µM); MIC [9, 27]: 6.3 µg/mL (≈ 8.48 µM); MIC [23]: 25 µg/mL (≈ 33.7 µM); MIC [24]: 25 µg/mL (≈ 33.7 µM); MIC [25]: > 100 µg/mL |
| CCC1OC(=O)CC(O)C(C)C(OC2OC(C)C(O)C(N(C)C)C2O)C(CC=O)CC(C)C(=O)C=CC(C)=CC1COc1cccc(N(CC)CC)c1 (stereo not shown) | 0.8 µg/mL (≈ 1.07 µM) | 0.4 µg/mL (≈ 0.537 µM) | 0.4 µg/mL (≈ 0.537 µM) | 25 µg/mL (≈ 33.6 µM) | 50 µg/mL (≈ 67.1 µM) | 0.2 µg/mL (≈ 0.268 µM) | 0.1 µg/mL (≈ 0.134 µM) | 0.2 µg/mL (≈ 0.268 µM) | 0.1 µg/mL (≈ 0.134 µM) | 0.1 µg/mL (≈ 0.134 µM) | 0.1 µg/mL (≈ 0.134 µM) | ≤ 0.05 µg/mL | 0.2 µg/mL (≈ 0.268 µM) | > 100 µg/mL | > 100 µg/mL | 3.1 µg/mL (≈ 4.16 µM) | > 100 µg/mL | > 100 µg/mL | 50 µg/mL (≈ 67.1 µM) | > 100 µg/mL | MIC [6, 26]: 25 µg/mL (≈ 33.6 µM); MIC [9, 27]: 12.5 µg/mL (≈ 16.8 µM); MIC [23]: 25 µg/mL (≈ 33.6 µM); MIC [24]: > 100 µg/mL; MIC [25]: > 100 µg/mL |
